Source: US20070112013A1, “Method of modulating ion channel functional activity” (Australian National University, priority 1998, published 2007)

Columns and labels:
[1] = molecular target: T1, Vpu ion channel (Human immunodeficiency virus type 1 group M subtype B, UniProt P05919); assay: Vpu ion channel activity in planar lipid bilayers; type: biochemical, HIV-1; conditions: concentrations of 50-250μM
T1 construct: The vpu ORF was cloned in-frame at the 3′ end of the GST gene in p2GEX to generate p2GEXVpu; GST (N, cleaved yes); made in house; host or cells: E. coli XL1-blue containing p2GEXVpu
From the text: FIG. 6 is a graphical representation of the inhibition of Vpu ion channel activity by 5-(N,N-hexamethylene)-arniloride (HMA) in planar lipid bilayers. The three traces represent typical Vpu channel activity observed in the presence of the indicated concentrations of HMA. The solid line indicates the zero current level. Mean currents (±variance), calculated for continuous channel recordings of at least 30 seconds duration, are plotted in the graph for each of the three drug concentrations.
Purified Vpu was tested for its ability to induce channel activity in planar lipid bilayers using standard techniques as described elsewhere (Miller, 1986; and Piller et al, 1996). The solutions in the CIS and TRANS chambers were separated by a Delrin™ plastic wall containing a small circular hole of approximately 100 μm diameter across which a lipid bilayer was painted so as to form a high resistance electrical seal. Bilayers were painted from a mixture (8:2) of palrnitoyl-oleoly-phosphatidyl-ethanolamine and palmitoyl-oleoly-phosphatidyl-choline (Avanti Polar Lipids, Alabaster, Alabama) in n-decane. The solutions in the two chambers contained MES buffer (10 mM, pH 6.0) to which various NaCl or KCl concentrations were added. Currents were recorded with an Axopatch™ 200 amplifier. The electrical potential between the two chambers could be manipulated between ±200 mV (TRANS relative to grounded CIS). Aliquots containing Vpu were added to the CIS chamber either as a detergent solution or after incorporation of the protein into phospholipid vesicles. The chamber was stirred until currents were observed.

[2] = tested on: HIV-1; assay: p24 ELISA of HIV virion production in human monocytes and macrophages; type: cell-based
Protocol: FIG. 7 is a graphical representation of the effect of HMA on HIV virion production in monocytes and monocyte-derived macrophages. HIV in culture supernatants was assayed at various days post-infection by detection of p24 antigen using a quantitative ELISA method. Solid black bars represent HIV-infected cells exposed to 10 μM HMA. Hatched bars are control cells not exposed to drug.
Human monocytes were isolated from peripheral blood and cultured either for 24 hr (one day old monocytes) or for 7 days to allow differentiation into monocyte derived macrophages (MDM). […] The progression and extent of viral replication was assayed using either an HIV DNA PCR method (Fear et al, 1998) or an ELISA method to quantitate p24 in culture supernatants (Kelly et al, 1998).
(§1) Subsequent tests were carried out to establish whether there was any anti-viral activity of HMA and DMA. Two tests were performed to characterise the effects of the drugs on HIV replication in human monocytes and macrophages: a) A PCR based assay was used to detect newly synthesised DNA arising from reverse transcription of the HIV genome, an early stage in virus replication; b) An ELISA method was used to quantitate production of the viral protein p24, reflecting a later stage in the replication process.

[3] = tested on: HIV-1; assay: PCR based assay of newly synthesised HIV DNA in human monocytes and macrophages; type: cell-based; conditions: 50 μM
Protocol: Human monocytes were isolated from peripheral blood and cultured either for 24 hr (one day old monocytes) or for 7 days to allow differentiation into monocyte derived macrophages (MDM). These cells were then exposed to cell-free preparations of HIV isolates and allowed to absorb for 2 hr before complete aspiration of the medium, washing once with virus-free medium and resuspension in fresh medium. The cells were exposed to 50-10 μM HMA or DMA either 24 hr prior to infection or after infection. Subsequent HIV replication, at various times after infection, was compared in cells exposed to drugs and in cells not exposed to drugs (controls). The progression and extent of viral replication was assayed using either an HIV DNA PCR method (Fear et al, 1998) or an ELISA method to quantitate p24 in culture supernatants (Kelly et al, 1998).
as §1

[4] = molecular target: T1, Vpu ion channel; assay: Bio-assay for Vpu channel blockers: growth of E. coli XL1-blue expressing Vpu on plates lacking adenine; type: cell-based, HIV-1; conditions: XL1-blue E. coli containing pPL-Vpu, medium lacking adenine, 37° C.
Protocol: FIG. 5 is a graphical representation of the screening of drugs for potential Vpu channel blockers. […] Numbers 6-11 are located at the sites of application of various drugs being tested, which were applied in 3μl drops and allowed to soak into the agarose. The plate was then incubated at 37° C. for 48hr prior to being photographed. The background grey shade corresponds to areas of no bacterial growth. The bright circular area around “10” represents bacterial cell growth as a result of application of adenine at that location (positive control).
As part of a search for drugs that block the Vpu ion channel, a novel bio-assay was developed to facilitate the screening process which would be prohibitively slow if performed in the bilayer assay (Ewart et al, 1996). This bio-assay is based on the observation that expression of Vpu in E.coli results in an active Vpu channel located in the plasmalemma that dissipates the transmembrane sodium gradient. As a consequence of this Vpu channel activity, metabolites whose accumulation within the cells is mediated by a sodium dependent co-transporter (for example proline or adenine) leak out of the cell faster than they can be synthesised so that the metabolites' intracellular levels become limiting for growth of the cell. Thereby, an E. coli cell expressing Vpu is unable to grow in minimal drop-out media lacking adenine or proline. However, in the presence of a drug that blocks the Vpu channel, the cell is once again able to re-establish its transmembrane sodium gradient—due to the action of other ion pumps in the membrane—and the leakage of metabolites is prevented enabling growth.
It was observed that, due to an uncharacterised mutation in the adenine synthesis pathway, growth of E. coli cells of the XL1-blue strain expressing Vpu at 37° C. was dependant on the presence of adenine in the medium. […]

[5] = tested on: HIV; assay: Effect on HIV replication (test not specified); type: cell-based

T1 sequence (P05919 whole entry): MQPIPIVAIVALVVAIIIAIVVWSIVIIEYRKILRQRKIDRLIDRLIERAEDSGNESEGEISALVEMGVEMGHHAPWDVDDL

Row | SMILES | inhibition of Vpu ion-channel activity [1] | HIV virion synthesis (p24 ELISA) ([2]; 50 μM, data not shown) | synthesis of HIV DNA in the cells [3] | HIV virion synthesis (p24 ELISA) ([2]; 10 μM, monocytes (FIG. 7A) and macrophages (FIG. 7B)) | halo of bacterial growth around the site of application (inhibition of Vpu channel) [4] | halo of bacterial growth around the site of application (inhibition of Vpu channel) ([4]; listed as 5-(N,N-hexamethylene)-anmiloride) | effect on HIV replication [5]
1 | CN(C)c1nc(N)c(C(=O)N=C(N)N)nc1Cl [DMA, 5-(N,N-Dimethyl)-Amiloride] | inhibit channel activity, though not as potently as HMA | clear inhibition of HIV virion synthesis | inhibited synthesis of HIV DNA | – | – | – | –
2 | NC(N)=NC(=O)c1nc(Cl)c(N2CCCCCC2)nc1N [HMA, 5-(N,N-Hexamethylene)-Amiloride] | block ion flow through the channel | – | – | clear inhibition of HIV virion synthesis | a halo of growth | smaller halo of bacterial growth | –
3 | N=C(N)NC(=O)c1nc(Cl)c(N)nc1N [amiloride, reference compound] | not active as a channel blocker | – | – | – | did not produce a halo of bacterial growth | – | no effect on HIV replication
